Article PMC12369479 (Journal of Experimental Botany, 2025)

Tests used:
[1] = target: T1, PpADK1 (Physcomitrium patens, UniProt O49923); assay: Binding affinity by microscale thermophoresis (MST); parameters: species or system Physcomitrella patens; details: 50 mM HEPES pH 7.5, 1 mM MgCl2, read-out: KD
T1 construct: made in house; host or cells: E. coli T7 Express Iq
Experimental: (§1) The microscale thermophoresis (MST) method was used to determine the binding affinity of various ribosides for ZmADK2 and PpADK1. Proteins were fluorescently labeled with RED-tris-NTA dye (www.nanotemper-technologies.com) using a 1:1 dye/protein molar ratio. The labeled protein was adjusted to 100–300 nM in 50 mM HEPES buffer pH 7.5, 1 mM MgCl2, and 0.2% Tween. Measurements were performed in premium capillaries on a Monolith NT.115 instrument at 30 °C with 5 s/30 s/5 s laser off/on/off times, respectively, with continuous sample fluorescence recording. Thermal stability was measured by nano-differential scanning fluorimetry on a Prometheus NT.48 instrument (www.nanotemper-technologies.com) in various buffers covering a pH (7.0–9.5) and temperature range (25–95 °C), with a heating rate of 1 °C min^–1, and using NT melting control software. Protein unfolding was measured by detecting the temperature-induced change in tryptophan fluorescence intensity at emission wavelengths of 330±5 nm and 350±5 nm. The melting temperature (Tm) was deduced from the maximum of the first derivative of the fluorescence ratios F350/F330.

[2] = target: WT ZmADK3 (Zea mays, UniProt A0A1D6E5Z5); assay: Binding affinity by MST; details: read-out: KD ATP
[3] = system: plant ADKs from lupin and Arabidopsis; parameters: method as in Guranowski, 1979; Moffatt et al., 2000; details: ref Guranowski, 1979, Moffatt et al., 2000, read-out: Km for ATP; cited from earlier work
[4] = system: five plant ADKs; assay: Thermal stability by nanoDSF; parameters: species or system Zea mays, Physcomitrella patens; details: all isoforms, ATP complexes at 4 mM
Experimental: as §1
Supplementary Fig. S1. Thermal stability, molecular and kinetic properties of ZmADK2. (A)
Thermal stability of five plant ADKs measured by nanoDSF. The curves for apoforms (in 150 mM
HEPES pH 7.2, 100 mM NaCl, 10 mM MgCl2) and ATP complexes at 4 mM concentrations are shown. […]

[5] = target: ZmADK2 (Zea mays, UniProt B4FFH8, T4S); assay: Binding affinity by microscale thermophoresis (MST); details: MST, 50 mM HEPES pH 7.5, 1 mM MgCl2, first or only binding event, read-out: KD
Experimental: as §1

[6] = target: ZmADK3 N222A variant (Zea mays, UniProt A0A1D6E5Z5, N222A); assay: Binding affinity by MST
Experimental: (§2) All ZmADK3 mutants were cloned by 30 cycle PCRs using tail-to-tail oriented phosphorylated primers, with the mutation being located at the 5′ end of one of the primers. The following mutants were cloned using the primers given in Supplementary Table S1: D19A, R132A, N222A, E225A, N295A, and D299A. The products were treated with DpnI restriction enzyme, gel purified, and ligated using T4 DNA ligase (www.thermofisher.com). Clones were transformed into T7 express I^qE. coli competent cells.
as §1

[7] = target: ZmADK3 E225A variant (Zea mays, UniProt A0A1D6E5Z5, E225A); assay: Binding affinity by MST
Experimental: as §2, §1

[8] = target: ZmADK3 D299A variant (Zea mays, UniProt A0A1D6E5Z5, D299A); assay: Binding affinity by MST; details: D299A; MST; read-out: KD ATP
Experimental: as §2, §1

[9] = target: ZmADK3 R132A variant (Zea mays, UniProt A0A1D6E5Z5, R132A); assay: Binding affinity by MST; details: R132A; MST; read-out: KD ATP
Experimental: as §2, §1

[10] = target: ZmADK3 N295A variant (Zea mays, UniProt A0A1D6E5Z5, N295A); assay: Binding affinity by MST; details: N295A; MST; read-out: KD ATP
Experimental: as §2, §1

[11] = target: ZmADK3 D19A variant (Zea mays, UniProt A0A1D6E5Z5, D19A); assay: Binding affinity by MST; details: D19A; MST; read-out: KD ATP
Experimental: as §2, §1

ZmADK3 E225A variant, sequence (A0A1D6E5Z5 entry or part of it E225A): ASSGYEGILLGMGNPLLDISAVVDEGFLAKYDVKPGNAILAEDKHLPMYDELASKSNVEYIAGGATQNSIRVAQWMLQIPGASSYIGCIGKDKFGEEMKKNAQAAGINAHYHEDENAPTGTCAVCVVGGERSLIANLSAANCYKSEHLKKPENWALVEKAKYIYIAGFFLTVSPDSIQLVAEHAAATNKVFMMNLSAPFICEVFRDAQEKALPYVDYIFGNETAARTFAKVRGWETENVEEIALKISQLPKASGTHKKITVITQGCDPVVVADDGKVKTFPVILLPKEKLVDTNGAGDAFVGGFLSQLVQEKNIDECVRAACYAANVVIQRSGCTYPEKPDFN
ZmADK3 N222A variant, sequence (A0A1D6E5Z5 entry or part of it N222A): as the sequence (A0A1D6E5Z5 entry or part of it E225A) above, with N221A, A224E counted along it
WT ZmADK3, sequence (A0A1D6E5Z5 2-344): as the sequence (A0A1D6E5Z5 entry or part of it E225A) above, with A224E counted along it
ZmADK3 R132A variant, sequence (A0A1D6E5Z5 entry or part of it R132A): as the sequence (A0A1D6E5Z5 entry or part of it E225A) above, with R131A, A224E counted along it
ZmADK2, sequence (B4FFH8 1-342 T4S): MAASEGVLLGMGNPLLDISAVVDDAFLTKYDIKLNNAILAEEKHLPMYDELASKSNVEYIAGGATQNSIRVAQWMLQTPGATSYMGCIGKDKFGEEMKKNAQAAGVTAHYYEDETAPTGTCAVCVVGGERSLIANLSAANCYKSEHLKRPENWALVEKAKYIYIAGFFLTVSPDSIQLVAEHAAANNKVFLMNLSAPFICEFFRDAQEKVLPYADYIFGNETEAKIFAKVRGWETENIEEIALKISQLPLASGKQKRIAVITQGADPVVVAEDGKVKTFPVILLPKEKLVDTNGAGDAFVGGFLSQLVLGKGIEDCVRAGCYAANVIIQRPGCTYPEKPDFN
ZmADK3 N295A variant, sequence (A0A1D6E5Z5 entry or part of it N295A): as the sequence (A0A1D6E5Z5 entry or part of it E225A) above, with A224E, N294A counted along it
ZmADK3 D19A variant, sequence (A0A1D6E5Z5 entry or part of it D19A): as the sequence (A0A1D6E5Z5 entry or part of it E225A) above, with D18A, A224E counted along it
ZmADK3 D299A variant, sequence (A0A1D6E5Z5 entry or part of it D299A): as the sequence (A0A1D6E5Z5 entry or part of it E225A) above, with A224E, D298A counted along it
T1 sequence (O49923 whole entry): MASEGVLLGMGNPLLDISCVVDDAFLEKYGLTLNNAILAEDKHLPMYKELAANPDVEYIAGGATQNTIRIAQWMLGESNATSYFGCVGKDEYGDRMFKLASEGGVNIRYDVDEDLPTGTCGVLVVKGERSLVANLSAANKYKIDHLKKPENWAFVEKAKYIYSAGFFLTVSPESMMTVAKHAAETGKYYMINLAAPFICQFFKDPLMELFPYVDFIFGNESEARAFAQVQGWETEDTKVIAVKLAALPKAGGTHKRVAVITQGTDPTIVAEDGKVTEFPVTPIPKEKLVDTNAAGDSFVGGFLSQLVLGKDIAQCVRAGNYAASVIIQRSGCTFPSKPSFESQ

For `Nc1ncnc2c1ncn2[C@@H]1O[C@H](COP(=O)(O)OP(=O)(O)OP(=O)(O)O)[C@@H](O)[C@H]1O` [ATP], the Kd [1] is given as 2.9 ± 0.7 mM, the Kd [2] is given as 2.9 ± 1.1 mM and the Km [3] is given as 300 to 400 µM. The “stabilizing effect on melting temperature (Tm)” value [4] was “up to 4 °C”, the Kd [5] was 2.2 ± 0.62 mM and the “lower affinity for ATP compared with the WT” value ([6]; N222A variant of ZmADK3) was 7 fold. The Kd ([6]; N222A, MST, read-out: KD ATP) was 20.7 ± 4.4 mM, the “lower affinity for ATP compared with the WT” value ([7]; E225A variant of ZmADK3) was ~ 6 fold and the Kd ([7]; E225A, MST, read-out: KD ATP) was 16 ± 4.5 mM. It also gave a Kd [8] of 9.1 ± 2.1 mM, a Kd [9] of 8.5 ± 2.1 mM and a Kd [10] of 41.8 ± 10 mM. The Kd [11] was 4.9 ± 1.5 mM.
